Results reported in patent publication US5382679A, “Process for the preparation of glutathione S-acyl derivatives, compounds obtained from said process and an intermediate useful for the preparation thereof” (Boehringer Mannheim Italia S.p.A., priority 1990, dated 1995).

Experiments:
[1] = Enzymatic hydrolysis of thioester bond in cytosol; type: in vitro ADME; settings: GSH derivative 0, 16 mM; for enzymatic hydrolysis specific activity of thioester bond, Cytosol: mean ± SD on 6 tests
Excerpt: (§1) |The enzymatic hydrolysis specific activity of thioester |bond is expressed as -SH released nmoles/min/mg of […]. […] Spontaneous hy- |drolysis of the substrates ranges from 1% to 10% maxi- |mum. […] |sts.

[2] = Enzymatic hydrolysis of thioester bond in serum; type: in vitro ADME; settings: GSH derivative 0, 16 mM, mean ± SD on 6 tests
Excerpt: as §1

In the case of `CC(=O)SC[C@H](NC(=O)CC[C@H](N)C(=O)O)C(=O)NCC(=O)O` [S-acetyl, γ-L-glutamyl-S-acetyl-L-cysteinyl-glycine], the “enzymatic hydrolysis specific activity of thioester bond, Cytosol” value [1] was 10,8 ± 1,5 -SH released nmoles/min/mg of and the “enzymatic hydrolysis specific activity of thioester bond, Serum” value [2] was 0 -SH released nmoles/min/mg of.
For `N[C@@H](CCC(=O)N[C@@H](CSC(=O)c1ccccc1)C(=O)NCC(=O)O)C(=O)O` [S-benzoyl, γ-L-glutamyl-S-benzoyl-L-cysteinyl-glycine], the “enzymatic hydrolysis specific activity of thioester bond, Cytosol” value [1] was 3,2 ± 1,1 -SH released nmoles/min/mg of, the “Ratio (intracellular to extracellular hydrolysis rate, Cytosol/Serum)” value [1] was 80,0 and the “enzymatic hydrolysis specific activity of thioester bond, Serum” value [2] was 0,04 ± 0,005 -SH released nmoles/min/mg of.
In the case of `CCOC(=O)CNC(=O)[C@H](CSC(=O)c1ccccc1)NC(=O)CC[C@H](N)C(=O)OCC` [S-benzoyl-diethylester], the “enzymatic hydrolysis specific activity of thioester bond, Cytosol” value [1] was 1,45 ± 0,8 -SH released nmoles/min/mg of, the “Ratio (intracellular to extracellular hydrolysis rate, Cytosol/Serum)” value [1] was 18,5 and the “enzymatic hydrolysis specific activity of thioester bond, Serum” value [2] was 0,07 ± 0,005 -SH released nmoles/min/mg of.
For `CCOC(=O)CNC(=O)[C@H](CSC(=O)c1ccccc1)NC(=O)CC[C@H](N)C(=O)O` [S-benzoyl-monoethylester, ethyl γ-L-glutamyl-S-benzoyl-L-cysteinyl glycinate], the “enzymatic hydrolysis specific activity of thioester bond, Cytosol” value [1] was 0,6 ± 0,08 -SH released nmoles/min/mg of, the “Ratio (intracellular to extracellular hydrolysis rate, Cytosol/Serum)” value [1] was 6,0 and the “enzymatic hydrolysis specific activity of thioester bond, Serum” value [2] was 0,10 ± 0,004 -SH released nmoles/min/mg of.
In the case of `N[C@@H](CCC(=O)N[C@@H](CSC(=O)Cc1ccccc1)C(=O)NCC(=O)O)C(=O)O` [S-phenylacetyl, γ-L-glutamyl-S-phenylacetyl-L-cysteinyl-glycine], the “enzymatic hydrolysis specific activity of thioester bond, Cytosol” value [1] was 6,7 ± 0,9 -SH released nmoles/min/mg of, the “Ratio (intracellular to extracellular hydrolysis rate, Cytosol/Serum)” value [1] was 134,0 and the “enzymatic hydrolysis specific activity of thioester bond, Serum” value [2] was 0,05 ± 0,003 -SH released nmoles/min/mg of.
With `CC(C)(C)C(=O)SC[C@H](NC(=O)CC[C@H](N)C(=O)O)C(=O)NCC(=O)O` [S-pivaloyl, γ-L-glutamyl-S-pivaloyl-L-cysteinyl-glycine] the “enzymatic hydrolysis specific activity of thioester bond, Cytosol” value [1] was 6,9 ± 0,7 -SH released nmoles/min/mg of and the “enzymatic hydrolysis specific activity of thioester bond, Serum” value [2] was 0 -SH released nmoles/min/mg of.
